Experimental data published in US20230085307A1, “PYRIDAZINONE COMPOUND AND HERBICIDE” (NISSAN CHEMICAL CORPORATION, priority 2019, published 2023).

Columns and labels:
barnyard grass [1] = assay: Test Example 3: herbicidal effect by foliage application, Wagner pot (Table 18, symbol H); assay type: in vivo, barnyard grass (Echinochloa crus-galli); details: amount of applied herbicide 320 g/ha
In short: (§1)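 Plants were sown in alluvial soil held under 0.1–0.5 cm standing water and grown 14 days in a greenhouse at 25–30 °C. An emulsifiable formulation, water-diluted to the set dose, was then sprayed onto the foliage, and effects were scored three weeks later using previously defined criteria.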

Chinese sprangletop = assay: Test Example 3: herbicidal effect by foliage application, Wagner pot (Table 18, symbol D); assay type: in vivo, chinese sprangletop (Leptochloa chinensis); details: amount of applied herbicide 320 g/ha
In short: as §1

rice flat sedge = assay: Test Example 3: herbicidal effect by foliage application, Wagner pot (Table 18, symbol E); assay type: in vivo, rice flat sedge (Cyperus iria); details: amount of applied herbicide 320 g/ha
In short: as §1

southern crabgrass = assay: Test Example 5: herbicidal effect by foliage application, plastic box (Table 20, symbol F); assay type: in vivo, southern crabgrass (Digitaria ciliaris); details: foliage application, evaluated three weeks after application; for herbicidal effect on F: southern crabgrass (criteria 0-5): 320 g/ha
In short: (§2)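 Sow seeds spot-wise in sterilized diluvial soil; cover with ~1.5 cm soil. Grow 14 days in greenhouse, 25° C. to 30° C. Spray foliage with emulsion diluted to predetermined amount. Rate effect after 3 weeks.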

green foxtail = assay: Test Example 5: herbicidal effect by foliage application, plastic box (Table 20, symbol G); assay type: in vivo, green foxtail (Setaria viridis); details: foliage application, evaluated three weeks after application; for herbicidal effect on G: green foxtail (criteria 0-5): 320 g/ha
In short: as §2

barnyard grass [2] = assay: Test Example 5: herbicidal effect by foliage application, plastic box (Table 20, symbol H); assay type: in vivo, barnyard grass (Echinochloa crus-galli); details: foliage application, evaluated three weeks after application; for herbicidal effect on H: barnyard grass (criteria 0-5): 320 g/ha
In short: as §2

wild oat = assay: Test Example 5: herbicidal effect by foliage application, plastic box (Table 20, symbol I); assay type: in vivo, wild oat (Avena fatua); details: foliage application, evaluated three weeks after application; for herbicidal effect on I: wild oat (criteria 0-5): 320 g/ha
In short: as §2

blackgrass = assay: Test Example 5: herbicidal effect by foliage application, plastic box (Table 20, symbol J); assay type: in vivo, blackgrass (Alopecurus myosuroides); details: foliage application, evaluated three weeks after application; for herbicidal effect on J: blackgrass (criteria 0-5): 320 g/ha
In short: as §2

Italian ryegrass = assay: Test Example 5: herbicidal effect by foliage application, plastic box (Table 20, symbol K); assay type: in vivo, Italian ryegrass (Lolium multiflorum); details: foliage application, evaluated three weeks after application; for herbicidal effect on K: Italian ryegrass (criteria 0-5): 320 g/ha
In short: as §2

windgrass = assay: Test Example 5: herbicidal effect by foliage application, plastic box (Table 20, symbol L); assay type: in vivo, windgrass (Apera spica-venti); details: foliage application, evaluated three weeks after application; for herbicidal effect on L: windgrass (criteria 0-5): 320 g/ha
In short: as §2

velvetleaf = assay: Test Example 5: herbicidal effect by foliage application, plastic box (Table 20, symbol M); assay type: in vivo, velvetleaf (Abutilon theophrasti); details: foliage application, evaluated three weeks after application; for herbicidal effect on M: velvetleaf (criteria 0-5): 320 g/ha
In short: as §2

redroot pigweed = assay: Test Example 5: herbicidal effect by foliage application, plastic box (Table 20, symbol N); assay type: in vivo, redroot pigweed (Amaranthus retroflexus); details: foliage application, evaluated three weeks after application; for herbicidal effect on N: redroot pigweed (criteria 0-5): 320 g/ha
In short: as §2

lambsquarters = assay: Test Example 5: herbicidal effect by foliage application, plastic box (Table 20, symbol O); assay type: in vivo, lambsquarters (Chenopodium album); details: foliage application, evaluated three weeks after application; for herbicidal effect on O: lambsquarters (criteria 0-5): 320 g/ha
In short: as §2

chickweed = assay: Test Example 5: herbicidal effect by foliage application, plastic box (Table 20, symbol P); assay type: in vivo, common chickweed (Stellaria media); details: foliage application, evaluated three weeks after application; for herbicidal effect on P: chickweed (criteria 0-5): 320 g/ha
In short: as §2

persian speedwell = assay: Test Example 5: herbicidal effect by foliage application, plastic box (Table 20, symbol R); assay type: in vivo, Persian speedwell (Veronica persica); details: foliage application, evaluated three weeks after application; for herbicidal effect on R: persian speedwell (criteria 0-5): 320 g/ha
In short: as §2

| SMILES | herbicidal effect on H: barnyard grass (barnyard grass [1]) | herbicidal effect on D: Chinese sprangletop (Chinese sprangletop) | herbicidal effect on E: rice flat sedge (rice flat sedge) | herbicidal effect on F: southern crabgrass (criteria 0-5) (southern crabgrass) | herbicidal effect on G: green foxtail (criteria 0-5) (green foxtail) | herbicidal effect on H: barnyard grass (criteria 0-5) (barnyard grass [2]) | herbicidal effect on I: wild oat (criteria 0-5) (wild oat) | herbicidal effect on J: blackgrass (criteria 0-5) (blackgrass) | herbicidal effect on K: Italian ryegrass (criteria 0-5) (Italian ryegrass) | herbicidal effect on L: windgrass (criteria 0-5) (windgrass) | herbicidal effect on M: velvetleaf (criteria 0-5) (velvetleaf) | herbicidal effect on N: redroot pigweed (criteria 0-5) (redroot pigweed) | herbicidal effect on O: lambsquarters (criteria 0-5) (lambsquarters) | herbicidal effect on P: chickweed (criteria 0-5) (chickweed) | herbicidal effect on R: persian speedwell (criteria 0-5) (persian speedwell) | further results |
| --- | --- | --- | --- | --- | --- | --- | --- | --- | --- | --- | --- | --- | --- | --- | --- | --- |
| CCCC(=O)Oc1c(C)nn(C)c(=O)c1-c1c(-c2ccc([N+](=O)[O-])cc2)sc2ccc(C)cc12 [2-145] | 3 (Herbicidal rate of 40% or more and less than 70%) | 0 (Herbicidal rate of 5% or less (almost no effect)) | 4 (Herbicidal rate of 70% or more and less than 90%) | 1 (Herbicidal rate of 5% or more and less than 20%) | 3 (Herbicidal rate of 40% or more and less than 70%) | 3 (Herbicidal rate of 40% or more and less than 70%) | 0 (Herbicidal rate of 5% or less (almost no effect)) | 0 (Herbicidal rate of 5% or less (almost no effect)) | 3 (Herbicidal rate of 40% or more and less than 70%) | 0 (Herbicidal rate of 5% or less (almost no effect)) | 4 (Herbicidal rate of 70% or more and less than 90%) | 4 (Herbicidal rate of 70% or more and less than 90%) | 4 (Herbicidal rate of 70% or more and less than 90%) | 5 (Herbicidal rate of 90% or more (almost completely withered)) | 5 (Herbicidal rate of 90% or more (almost completely withered)) |  |
| COc1ccc(-c2sc3ccc(C)cc3c2-c2c(O)c(C)nn(C)c2=O)cc1OC [2-152] | 0 (Herbicidal rate of 5% or less (almost no effect)) | 0 (Herbicidal rate of 5% or less (almost no effect)) | 3 (Herbicidal rate of 40% or more and less than 70%) | 0 (Herbicidal rate of 5% or less (almost no effect)) | 0 (Herbicidal rate of 5% or less (almost no effect)) | 0 (Herbicidal rate of 5% or less (almost no effect)) | 0 (Herbicidal rate of 5% or less (almost no effect)) | 0 (Herbicidal rate of 5% or less (almost no effect)) | 2 (Herbicidal rate of 20% or more and less than 40%) | 0 (Herbicidal rate of 5% or less (almost no effect)) | 0 (Herbicidal rate of 5% or less (almost no effect)) | 0 (Herbicidal rate of 5% or less (almost no effect)) | 0 (Herbicidal rate of 5% or less (almost no effect)) | 5 (Herbicidal rate of 90% or more (almost completely withered)) | 4 (Herbicidal rate of 70% or more and less than 90%) |  |
| COc1cc(F)ccc1-c1sc2ccc(N(C)C(C)=O)cc2c1-c1c(O)c(C)nn(C)c1=O [2-177] | 3 (Herbicidal rate of 40% or more and less than 70%) | 4 (Herbicidal rate of 70% or more and less than 90%) | 3 (Herbicidal rate of 40% or more and less than 70%) | 0 (Herbicidal rate of 5% or less (almost no effect)) | 3 (Herbicidal rate of 40% or more and less than 70%) | 0 (Herbicidal rate of 5% or less (almost no effect)) | 0 (Herbicidal rate of 5% or less (almost no effect)) | 3 (Herbicidal rate of 40% or more and less than 70%) | 0 (Herbicidal rate of 5% or less (almost no effect)) | 3 (Herbicidal rate of 40% or more and less than 70%) | 3 (Herbicidal rate of 40% or more and less than 70%) | 4 (Herbicidal rate of 70% or more and less than 90%) | 3 (Herbicidal rate of 40% or more and less than 70%) | 5 (Herbicidal rate of 90% or more (almost completely withered)) | 4 (Herbicidal rate of 70% or more and less than 90%) |  |
| Cc1nn(C)c(=O)c(-c2c(-c3cccc(SC(C)C)c3)sc3ccc(F)cc23)c1O [2-250] | 3 (Herbicidal rate of 40% or more and less than 70%) | 2 (Herbicidal rate of 20% or more and less than 40%) | 3 (Herbicidal rate of 40% or more and less than 70%) | 0 (Herbicidal rate of 5% or less (almost no effect)) | 0 (Herbicidal rate of 5% or less (almost no effect)) | 0 (Herbicidal rate of 5% or less (almost no effect)) | 2 (Herbicidal rate of 20% or more and less than 40%) | 3 (Herbicidal rate of 40% or more and less than 70%) | 1 (Herbicidal rate of 5% or more and less than 20%) | 3 (Herbicidal rate of 40% or more and less than 70%) | 2 (Herbicidal rate of 20% or more and less than 40%) | 5 (Herbicidal rate of 90% or more (almost completely withered)) | 3 (Herbicidal rate of 40% or more and less than 70%) | 5 (Herbicidal rate of 90% or more (almost completely withered)) | 5 (Herbicidal rate of 90% or more (almost completely withered)) |  |
| Cc1nn(C)c(=O)c(-c2c(-c3cccc(SCC(F)(F)F)c3)sc3ccc(F)cc23)c1O [2-262] | 3 (Herbicidal rate of 40% or more and less than 70%) | 0 (Herbicidal rate of 5% or less (almost no effect)) | 2 (Herbicidal rate of 20% or more and less than 40%) |  |  |  |  |  |  |  |  |  |  |  |  | F: southern crabgrass, herbicidal effect (criteria 0-5) (southern crabgrass; AAH 320 g/ha): 0 (Herbicidal rate of 5% or less (almost no effect)); G: green foxtail, herbicidal effect (criteria 0-5) (green foxtail; AAH 320 g/ha): 0 (Herbicidal rate of 5% or less (almost no effect)); H: barnyard grass, herbicidal effect (criteria 0-5) (barnyard grass [2]; AAH 320 g/ha): 0 (Herbicidal rate of 5% or less (almost no effect)); I: wild oat, herbicidal effect (criteria 0-5) (wild oat; AAH 320 g/ha): 3 (Herbicidal rate of 40% or more and less than 70%); J: blackgrass, herbicidal effect (criteria 0-5) (blackgrass; AAH 320 g/ha): 3 (Herbicidal rate of 40% or more and less than 70%); K: Italian ryegrass, herbicidal effect (criteria 0-5) (Italian ryegrass; AAH 320 g/ha): 3 (Herbicidal rate of 40% or more and less than 70%); L: windgrass, herbicidal effect (criteria 0-5) (windgrass; AAH 320 g/ha): 4 (Herbicidal rate of 70% or more and less than 90%); M: velvetleaf, herbicidal effect (criteria 0-5) (velvetleaf; AAH 320 g/ha): 4 (Herbicidal rate of 70% or more and less than 90%); N: redroot pigweed, herbicidal effect (criteria 0-5) (redroot pigweed; AAH 320 g/ha): 5 (Herbicidal rate of 90% or more (almost completely withered)); O: lambsquarters, herbicidal effect (criteria 0-5) (lambsquarters; AAH 320 g/ha): 3 (Herbicidal rate of 40% or more and less than 70%); P: chickweed, herbicidal effect (criteria 0-5) (chickweed; AAH 320 g/ha): 5 (Herbicidal rate of 90% or more (almost completely withered)); R: persian speedwell, herbicidal effect (criteria 0-5) (persian speedwell; AAH 320 g/ha): 5 (Herbicidal rate of 90% or more (almost completely withered)) |
